From PMC5007854, “β-Nitrostyrenes as Potential Anti-leishmanial Agents” (Frontiers in Microbiology, 2016)
Converted amounts (≈) assume the structure as drawn. Read-outs that look alike come from different tables or passages of the source.

How the values were obtained:
[1] = test system: L. donovani promastigotes; assay: Anti-leishmanial screening at 100 μM, parasite viability by microscopy; format: cell-based, Leishmania donovani; details: for Anti-leishmanial activity, in words (SAR discussion): L. donovani promastigotes
Protocol: L. donovani parasites (MHOM/IN/83/AG83) were maintained in vivo in BALB/c mice. Promastigotes were routinely cultured at 22°C in medium M199 supplemented with 10% heat inactivated fetal bovine serum (FBS, HiMedia Laboratories, Mumbai, India), penicillin 100 (IU/ml), streptomycin (100 μg/ml). Log phase promastigotes were sub-cultured every 72–96 h, the inoculum being 2 × 10^6 cells/ml (Afrin et al., [2002]).
Nitrostyrine series were screened for their antileishmanial activity against L. donovani promastigotes in vitro. Promastigotes of L. donovani (2 × 10^6 cells/mL) in M199 medium were incubated at 22°C for 72 h with each compound at a concentration of 100 μM. Amphotericin B (AmB) served as reference drug, 0.2% DMSO was used as solvent control. Parasites with media alone were taken as control. Parasite viability was determined microscopically after 72 h (Islamuddin et al., [2014b]).

[2] = test system: Staphylococcus epidermidis ATCC 14990; assay: Broth microdilution antibacterial susceptibility (MIC/MBC); format: cell-based; details: for MIC / MBC: Staphylococcus epidermidis; for MIC: ATCC14990, 24 h
Source text: (§1) One reference each of the following species was used for their in vitro susceptibility to β-nitrostyrene in this study: Staphylococcus aureus ATCC 29213, Staphylococcus epidermidis ATCC 14990, Escherichia coli ATCC 25922, Pseudomonas aeruginosa ATCC 27853, Candida albicans ATCC 90028, Candida glabrata ATCC 90030, Aspergillus fumigatus ATCC 16424 and Aspergillus niger ATCC 16404. These strains were procured from the American Type Culture Collection (ATCC, Manassas, VA, USA).
(§2) The antibacterial and antifungal activities of the β-nitrostyrenes were performed by broth microdilution methods as per the guidelines of Clinical and Laboratory Standard Institute (Wayne, [1998], [2008a],[b],[c]) by using Mueller-Hinton broth (MHB; Becton-Dickinson, Cockeysville, MD, USA) supplemented with calcium (25 mg/L) and magnesium (12.5 mg/L) for bacterial strains while as RPMI 1640 medium with L-glutamine and without sodium bicarbonate, buffered to pH 7.0 with 0.165 M 3-(N-morpholino) propanesulfonic acid (MOPS; both from Sigma) was used for fungal strains. Stock solutions were prepared in 100% dimethyl sulfoxide (DMSO; Sigma; distilled water was used for ciprofloxacin), with a final DMSO concentration of 1% (vol. per vol.) and two-fold serial dilutions were prepared in media in amounts of 100 μL per well in 96-well U-bottom microtiter plates (Tarsons, Kolkata, India) to yield twice the final concentration required for testing, which ranged from 64 to 0.12 μg/mL for β-nitrostyrenes and 16 to 0.03 μg/mL for ciprofloxacin as well as amphotericin B. Stock inoculum suspensions of the bacteria, Candida species and Aspergillus species were prepared in sterile normal saline (0.85%) containing 0.05% polysorbate 20 (NST) from overnight (3 to 5-day old for Aspergillus species) strains grown on Trypticase soy agar (TSA; Becton-Dickinson) and potato dextrose agar (Difco Laboratories, Detroit, MI, USA) respectively at 35°C. Inocula were verified for each assay by plating onto agar plates for colony enumeration. These suspensions were further diluted in the respective test medium and a 100 μl volume of this diluted inoculum was added to each well of the plate, resulting in a final inoculum concentration of approximately 5 × 10^5 CFU/mL for bacter1ia, (Wayne, [2008a]) approximately 2.5 × 10^4 CFU/ml for Candida species (Pfaller et al., [2004]) while as 0.4 × 10^4 to 5 × 10^4 CFU/mL for Aspergillus species (Wayne, [2008c]). Untreated growth control, vehicle control (DMSO) and sterility control wells were included for each isolate tested. Ciprofloxacin and amphotericin B served as the standard drug controls for bacterial and fungal strains, respectively. The microtiter plates were incubated at 35°C for 24 h for bacterial strains and 48 h for fungal strains. The plates were read visually and the minimum inhibitory concentration (MIC) was defined as the lowest concentration of test sample that prevented visible growth with respect to the growth control.
(§3) The minimum bactericidal concentration (MBC) and minimum fungicidal concentration (MFC) were determined by plating 100 μl volumes on agar plates from the wells showing no visible growth (clear MIC well). The plates were incubated as described above in MIC measurements. […] All experiments were conducted twice in duplicates on separate occasions with freshly prepared inoculums and stock solutions.

[3] = test system: Staphylococcus aureus ATCC 29213; assay: as above; format: cell-based; details: Staphylococcus aureus; for MIC: ATCC29213, 24 h, broth microdilution, 35°C, 24 h, read-out: MIC, Sa ATCC 29213
Source text: as §1, §2, §3

[4] = test system: Escherichia coli ATCC 25922; assay: as above; format: cell-based; details: for MIC / MBC: Escherichia coli; for MIC: ATCC25922, 24 h
Source text: as §1, §2, §3

[5] = test system: Pseudomonas aeruginosa ATCC 27853; assay: as above; format: cell-based; details: for MIC / MBC: Pseudomonas aeruginosa; for MIC: ATCC27853, 24 h
Source text: as §1, §2, §3

[6] = test system: Candida glabrata ATCC 90030; assay: Broth microdilution antifungal susceptibility (MIC/MFC); format: cell-based; details: Nakaseomyces glabratus; for MIC: ATCC90030, 48 h, broth microdilution, 35°C, 48 h, read-out: MIC, Cg ATCC 90030
Source text: as §1, §2, §3

[7] = test system: Aspergillus fumigatus ATCC 16424; assay: as above; format: cell-based; details: for MIC / MFC: Aspergillus fumigatus; for MIC: ATCC16424, 48 h
Source text: as §1, §2, §3

[8] = test system: Aspergillus niger ATCC 16404; assay: as above; format: cell-based; details: for MIC / MFC: Aspergillus niger; for MIC: ATCC16404, 48 h
Source text: as §1, §2, §3

[9] = test system: Candida albicans ATCC 90028; assay: as above; format: cell-based; details: for MIC / MFC: Candida albicans; for MIC: ATCC90028, 48 h
Source text: as §1, §2, §3

[10] = broth microdilution, 35°C, 24 h
[11] = broth microdilution, 35°C, 48 h
[12] = broth microdilution, 35°C, 24 h, read-out: MIC, Se ATCC 14990
[13] = ATCC14990, ≥99.9% reduction of original inoculum, read-out: MBC, Se ATCC 14990
[14] = ATCC29213, ≥99.9% reduction of original inoculum, read-out: MBC, Sa ATCC 29213
[15] = broth microdilution, 35°C, 24 h, read-out: MIC, Ec ATCC 25922
[16] = ATCC25922, ≥99.9% reduction of original inoculum, read-out: MBC, Ec ATCC 25922
[17] = broth microdilution, 35°C, 24 h, read-out: MIC, Pa ATCC 27853
[18] = ATCC27853, ≥99.9% reduction of original inoculum, read-out: MBC, Pa ATCC 27853
[19] = ATCC90030, ≥99.9% reduction of original inoculum, read-out: MFC, Cg ATCC 90030
[20] = broth microdilution, 35°C, 48 h, read-out: MIC, Af ATCC 16424
[21] = ATCC16424, ≥99.9% reduction of original inoculum, read-out: MFC, Af ATCC 16424
[22] = broth microdilution, 35°C, 48 h, read-out: MIC, An ATCC 16404
[23] = ATCC16404, ≥99.9% reduction of original inoculum, read-out: MFC, An ATCC 16404
[24] = broth microdilution, 35°C, 48 h, read-out: MIC, Ca ATCC 90028
[25] = ATCC90028, ≥99.9% reduction of original inoculum, read-out: MFC, Ca ATCC 90028

C/C(=C\[N+](=O)[O-])c1ccc(O)cc1 [Compound 25, 4-((E)-1-nitroprop-1-en-2-yl)phenol]
melting point: 88 to 90 °C | Anti-leishmanial activity, in words (SAR discussion) [1]: loss of activity

O=[N+]([O-])/C=C/c1ccc([N+](=O)[O-])cc1 [Compound 7, 1-nitro-4-((E)-2-nitrovinyl) benzene]
Parasite viability after treatment ([1]; 100 μM, 72 h, phase contrast microscope): All the parasites were found to be dead | MIC ([2]; read-out: MIC, Se ATCC 14990, broth microdilution, 35°C, 24 h): 2 to 16 µg/mL (≈ 10.3 to 82.4 µM) | MBC ([2]; ATCC14990, read-out: MBC, Se ATCC 14990): 4 µg/mL (≈ 20.6 µM) | MIC, Se ATCC 14990 [2, 10]: 4 µg/mL (≈ 20.6 µM) | MBC ([3]; ATCC29213, read-out: MBC, Sa ATCC 29213): 8 µg/mL (≈ 41.2 µM) | MIC ([4]; read-out: MIC, Ec ATCC 25922, broth microdilution, 35°C, 24 h): 16 to 32 µg/mL (≈ 82.4 to 165 µM) | MBC ([4]; ATCC25922, read-out: MBC, Ec ATCC 25922): 32 µg/mL (≈ 165 µM) | MIC, Ec ATCC 25922 [4, 10]: 16 µg/mL (≈ 82.4 µM) | MIC ([5]; read-out: MIC, Pa ATCC 27853, broth microdilution, 35°C, 24 h): 16 to 32 µg/mL (≈ 82.4 to 165 µM) | MBC ([5]; ATCC27853, read-out: MBC, Pa ATCC 27853): 32 µg/mL (≈ 165 µM) | MIC, Pa ATCC 27853 [5, 10]: 16 µg/mL (≈ 82.4 µM) | MFC ([6]; ATCC90030, read-out: MFC, Cg ATCC 90030): 4 µg/mL (≈ 20.6 µM) | MIC ([7]; read-out: MIC, Af ATCC 16424, broth microdilution, 35°C, 48 h): 4 to 8 µg/mL (≈ 20.6 to 41.2 µM) | MFC ([7]; ATCC16424, read-out: MFC, Af ATCC 16424): 4 µg/mL (≈ 20.6 µM) | MIC, Af ATCC 16424 [7, 11]: 4 µg/mL (≈ 20.6 µM) | MIC ([8]; read-out: MIC, An ATCC 16404, broth microdilution, 35°C, 48 h): 2 to 4 µg/mL (≈ 10.3 to 20.6 µM) | MFC ([8]; ATCC16404, read-out: MFC, An ATCC 16404): 2 µg/mL (≈ 10.3 µM) | MIC, An ATCC 16404 [8, 11]: 2 µg/mL (≈ 10.3 µM) | MIC ([9]; read-out: MIC, Ca ATCC 90028, broth microdilution, 35°C, 48 h): 4 to 32 µg/mL (≈ 20.6 to 165 µM) | MFC ([9]; ATCC90028, read-out: MFC, Ca ATCC 90028): 4 µg/mL (≈ 20.6 µM) | MIC, Ca ATCC 90028 [9, 11]: 4 µg/mL (≈ 20.6 µM)

CC/C(=C\c1ccc(OC)cc1)[N+](=O)[O-] [Compound 15, 1-methoxy-4-((E)-2-nitrobut-1-enyl) benzene]
Anti-leishmanial activity, in words (SAR discussion) [1]: reduced the activity | MIC [2, 12]: 16 µg/mL (≈ 77.2 µM) | MBC [2, 13]: 16 µg/mL (≈ 77.2 µM) | MIC [3]: 16 µg/mL (≈ 77.2 µM) | MBC [3, 14]: 32 µg/mL (≈ 154 µM) | MIC [4, 15]: > 64 µg/mL | MBC [4, 16]: > 64 µg/mL | MIC [5, 17]: > 64 µg/mL | MBC [5, 18]: > 64 µg/mL | MIC [6]: 16 µg/mL (≈ 77.2 µM) | MFC [6, 19]: 16 µg/mL (≈ 77.2 µM) | MIC [7, 20]: 8 µg/mL (≈ 38.6 µM) | MFC [7, 21]: 16 µg/mL (≈ 77.2 µM) | MIC [8, 22]: 8 µg/mL (≈ 38.6 µM) | MFC [8, 23]: 8 µg/mL (≈ 38.6 µM) | MIC [9, 24]: 32 µg/mL (≈ 154 µM) | MFC [9, 25]: 32 µg/mL (≈ 154 µM)

COc1ccc(/C=C/[N+](=O)[O-])cc1OC [Compound 22, 1,2-dimethoxy-4-((E)-2-nitrovinyl) benzene]
Anti-leishmanial activity, in words (SAR discussion) [1]: inactive | MIC [2, 12]: 64 µg/mL (≈ 306 µM) | MBC [2, 13]: 64 µg/mL (≈ 306 µM) | MIC [3]: > 64 µg/mL | MBC [3, 14]: > 64 µg/mL | MIC [4, 15]: > 64 µg/mL | MBC [4, 16]: > 64 µg/mL | MIC [5, 17]: > 64 µg/mL | MBC [5, 18]: > 64 µg/mL | MIC [6]: 16 µg/mL (≈ 76.5 µM) | MFC [6, 19]: 16 µg/mL (≈ 76.5 µM) | MIC [7, 20]: 32 µg/mL (≈ 153 µM) | MFC [7, 21]: 64 µg/mL (≈ 306 µM) | MIC [8, 22]: 32 µg/mL (≈ 153 µM) | MFC [8, 23]: 32 µg/mL (≈ 153 µM) | MIC [9, 24]: 64 µg/mL (≈ 306 µM) | MFC [9, 25]: 64 µg/mL (≈ 306 µM)
